What was measured:
[1] = system: conscious Wistar rats; assay: Diuretic effect in vivo, urine volume in conscious rats; conditions: oral dose of 10 mg/kg, urine volume after 6 hours, relative to control group
Procedure: The diuretic effect is tested on conscious Wistar rats. The animals are subjected to fasting for 18 h before the experiment and put on a diet of water 90 minutes before the experiment. The product under test is then administered orally by force-feeding, the rat is placed in a metabolism cage and the volume of urine is measured after 6 hours. The volume is expressed in relation to the volume measured in a control group of rats.

[2] = system: Aorta rings without endothelium; assay: NO-donor activity in vitro, relaxation of noradrenaline-contracted aorta rings; conditions: aorta rings without endothelium contracted by noradrenaline (0.1-0.3 μM); read-out: IC50 (relaxant effect)
Procedure: Aorta rings without endothelium are used. After a first contraction induced by 60 mM KCl to characterise the sensitivity of the ring, and washing, a stable contraction is induced by noradrenaline (0.1-0.3 μM) in the presence or absence of ODQ. A cumulative concentration series is applied and the activity of the product under test is calculated by an IC50 (dose that inhibits the maximum effect by 50%).

[3] = system: SD rats anaesthetised with pentobarbital; assay: NO-donor activity in vivo, reduction of arterial pressure in anaesthetised rats; conditions: i.v. dose of 100 μg/kg
Procedure: The NO-donor effect of the compound is evaluated by the reduction in pressure caused in SD rats anaesthetised with pentobarbital. After stabilisation of the arterial pressure, the product under test is administered i.v. in increasing doses.

Compound	increase of the excretion of urine [1]	IC50 [2]	reduction of the arterial pressure [3]
CCN(CC)/[N+]([O-])=N/OCOC(=O)c1cccc(CNS(=O)(=O)c2cc(C(=O)NN3c4ccc([N+](=O)[O-])cc4CC3C)ccc2Cl)c1 (stereo not drawn) [Example 1]	108%	120 nM	56%
CCN(CC)/[N+]([O-])=N/OCOC(=O)c1ccc(CNS(=O)(=O)c2cc(C(=O)NN3c4ccccc4C[C@H]3C)ccc2Cl)cc1 [Example 10, ({[(1Z)-2,2-diethyl-1-oxidohydrazono]amino}oxy)methyl 4-({[(2-chloro-5-{[(2R)-2-methyl-2,3-dihydro-1H-indol-1-yl]carbamoyl}phenyl)-sulphonyl]amino}methyl)benzoate]	248%	40 nM	55%

Reference: patent US8288433B2, “Diazeniumdiolate compounds, a process for their preparation and pharmaceutical compositions containing them” (Les Laboratoires Servier, priority 2007, dated 2012)
